Test results taken from patent publication US20160297761A1, “NOVEL INHIBITORS OF GLUTAMINASE” (RHIZEN PHARMACEUTICALS SA, priority 2014, published 2016).

Tests used:
cancer cell lines = experiment: In vitro cell proliferation assay in cancer cell lines (MTT dye reduction, 72 h); assay type: cell-based; conditions: cancer cell line not named, 10% FBS media
Description: Assay 4: In Vitro Cell Proliferation Assay in Cancer Cell Lines
Growth inhibition assays were carried out using 10% FBS supplemented media. Cells were seeded at a concentration of 5000-20,000 cells/well in a 96-well plate. Test compounds at a concentration range from 0.01 to 10000 nM were added after 24 hours. Growth was assessed using the 3-[4,5-dimethylthiazol-2-yl]-2,5-diphenyltetrazolium bromide (MIT) dye reduction test at 0 h (prior to the addition of the test compound) and 72 hours after the addition of test compound. Absorbance was read on a Fluostar Optima (BMG Labtech, Germany) at a wave length of 450 nm. Data were analysed using GraphPad Prism and percent inhibition due to the test compound compared to the control was calculated accordingly.

[1] = target: T1, L-glutaminase present in mice brain homogenate (Glutaminase(Brain)) (Mus musculus, UniProt D3Z7P3); experiment: Glutaminase enzyme activity using glutaminase enzyme from mice brain/kidney homogenate (Nessler's reagent, ammonia); assay type: biochemical; conditions: mice brain homogenate; for inhibition at 0.1 µM: read-out: Glutaminase(Brain) activity % inhibition 0.1 μM; for inhibition at 1 µM: read-out: Glutaminase(Brain) activity % inhibition @1 μM
T1 sequence (D3Z7P3 55-674): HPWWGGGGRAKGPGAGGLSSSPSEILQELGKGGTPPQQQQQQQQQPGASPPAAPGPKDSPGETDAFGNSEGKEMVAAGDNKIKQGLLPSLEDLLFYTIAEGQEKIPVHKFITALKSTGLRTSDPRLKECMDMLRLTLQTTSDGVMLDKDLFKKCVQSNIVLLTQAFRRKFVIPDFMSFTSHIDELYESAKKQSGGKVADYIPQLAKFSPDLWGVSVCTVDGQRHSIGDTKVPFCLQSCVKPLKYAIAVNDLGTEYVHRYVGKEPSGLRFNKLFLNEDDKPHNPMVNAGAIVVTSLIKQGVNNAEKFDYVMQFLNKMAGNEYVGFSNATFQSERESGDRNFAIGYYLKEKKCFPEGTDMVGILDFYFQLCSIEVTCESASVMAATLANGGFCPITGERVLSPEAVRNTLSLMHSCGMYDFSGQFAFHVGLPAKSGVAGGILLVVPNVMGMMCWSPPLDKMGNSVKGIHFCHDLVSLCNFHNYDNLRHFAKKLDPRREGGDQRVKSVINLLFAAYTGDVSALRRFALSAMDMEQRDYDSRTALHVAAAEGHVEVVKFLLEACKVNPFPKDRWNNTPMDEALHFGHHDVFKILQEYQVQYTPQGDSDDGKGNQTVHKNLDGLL

| SMILES | melting point [°C] | GI50 (cancer cell lines) [µM] | inhibition at 0.1 µM [1] [%] | inhibition at 1 µM [1] [%] |
| --- | --- | --- | --- | --- |
| O=C(Cc1ccccn1)Nc1ccc(CCCCc2nnc(NC(=O)Cc3cccc(OC(F)(F)F)c3)s2)cn1 [Example-8, 2-(Pyridin-2-yl)-N-(5-(4-(5-(2-(3-(trifluoromethoxy)phenyl)acetamido)-1,3,4-thiadiazol-2-yl)butyl)pyridin-2-yl)acetamide] | 176 to 178 | < 0.1 | 25 to 50 | 50 to 75 |
| O=C(Cc1ccncc1)Nc1ccc(CCCCc2nnc(NC(=O)Cc3cccc(OC(F)(F)F)c3)s2)cn1 [Example-22, 2-(Pyridin-4-yl)-N-(5-(4-(5-(2-(3-(trifluoromethoxy)phenyl)acetamido)-1,3,4-thiadiazol-2-yl)butyl)pyridin-2-yl)acetamide] | 135 to 137 | 1 to 5 | < 25 | 50 to 75 |
| CC(Cl)C(=O)Nc1nnc(CCCCc2ccc(NC(=O)Cc3cccc(OC(F)(F)F)c3)nc2)s1 (stereo not shown) [Example-23, 2-Chloro-N-(5-(4-(6-(2-(3-(trifluoromethoxy)phenyl)acetamido)pyridin-3-yl)butyl)-1,3,4-thiadiazol-2-yl)propanamide] | 132 to 134 | 5 to 10 | < 25 | < 25 |
| O=C(Cc1cccc(OC(F)(F)F)c1)Nc1ccc(CCCCc2nnc(NC(=O)Cn3cccn3)s2)cn1 [Example-27, N-(5-(4-(5-(2-(1H-pyrazol-1-yl)acetamido)-1,3,4-thiadiazol-2-yl)butyl)pyridin-2-yl)-2-(3-(trifluoromethoxy)phenyl)acetamide] | 174 to 178 | 5 to 10 | < 25 | 50 to 75 |
